The text below walks through data of US11414424B2, “Cardiac sarcomere inhibitors” (Cytokinetics, Inc., priority 2018, dated 2022).

The assay deals with bovine cardiac myofibrils. Nature of the assay: Myofibril assay: PK/LDH-coupled steady-state ATPase activity of skinned bovine cardiac myofibrils. It is filed as biochemical. As to conditions: Ca2+ activating to 75% of maximal rate. Summed up: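 Steady-state ATPase of detergent-skinned bovine left-ventricular myofibrils (1 mg/mL), PK/LDH-coupled NADH read at 340 nm, in PIPES/MgCl2 buffer pH 6.8 with 50 μM ATP, 0.6 mM EGTA and CaCl2 set for 50% or 75% activation. Inhibition of activity measured.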
With `CNC(=O)N1CC2(C1)C(=O)N(c1ccc(C#N)c(F)c1)CC(=O)N2Cc1ccc(C(F)(F)F)cc1` [Compound 162, 8-(4-cyano-3-fluorophenyl)-N-methyl-6,9-dioxo-5-(4-(trifluoromethyl)benzyl)-2,5,8-triazaspiro[3.5]-nonane-2-carboxamide], the “CDMF75 IC15” value was found to be 400 nM.
Next, `CNC(=O)N1CC2(C1)C(=O)N(c1cccc(Cl)c1)CC(=O)N2Cc1ccc(C(F)(F)F)cc1` [Compound 163, 8-(3-chlorophenyl)-N-methyl-6,9-dioxo-5-(4-(trifluoromethyl)benzyl)-2,5,8-triazaspiro[3.5]-nonane-2-carboxamide]: 7300 nM; `CNC(=O)N1CC2(C1)C(=O)N(c1ccc(C#N)cc1)CC(=O)N2Cc1ccc(Cl)cc1` [Compound 164, 5-(4-chlorobenzyl)-8-(4-cyanophenyl)-N-methyl-6,9-dioxo-2,5,8-triazaspiro-[3.5]nonane-2-carboxamide]: 1600 nM.
Turning to `CNC(=O)N1CC2(C1)C(=O)N(c1ccc(-c3noc(C(F)F)n3)cc1)CC(=O)N2Cc1ccc(C(F)(F)F)cc1` [Compound 165, 8-(4-(5-(difluoromethyl)-1,2,4-oxadiazol-3-yl)-phenyl)-N-methyl-6,9-dioxo-5-(4-(trifluoromethyl)-benzyl)-2,5,8-triazaspiro-[3.5]nonane-2-carboxamide], the “CDMF75 IC15” value stood at 1400 nM.
On to `CNC(=O)N1CC2(C1)C(=O)N(c1ccc(Cl)c(C)c1)CC(=O)N2Cc1ccc(C(F)(F)F)cc1` [Compound 166, 8-(4-chloro-3-methyl-phenyl)-N-methyl-6,9-dioxo-5-(4-(trifluoromethyl)-benzyl)-2,5,8-triazaspiro-[3.5]nonane-2-carboxamide], for which the “CDMF75 IC15” value worked out at 2400 nM.
For the compound `CNC(=O)N1CC2(C1)C(=O)N(c1ccc(C#N)c(C)c1)CC(=O)N2Cc1ccc(C(F)(F)F)cc1` [Compound 167, 8-(4-cyano-3-methyl-phenyl)-N-methyl-6,9-dioxo-5-(4-(trifluoromethyl)-benzyl)-2,5,8-triazaspiro-[3.5]nonane-2-carboxamide], the “CDMF75 IC15” value worked out at 1300 nM.
Take `CNC(=O)N1CC2(C1)C(=O)N(c1ccc(Cl)cc1F)CC(=O)N2Cc1ccc(C(F)(F)F)cc1` [Compound 168, 8-(4-chloro-2-fluoro-phenyl)-N-methyl-6,9-dioxo-5-(4-(trifluoro-methyl)benzyl)-2,5,8-triazaspiro[3.5]nonane-2-carboxamide]: the “CDMF75 IC15” value is 300 nM.
As to `CNC(=O)N1CC2(C1)C(=O)N(c1ccc(C#N)cc1F)CC(=O)N2Cc1ccc(C(F)(F)F)cc1` [Compound 169, 8-(4-cyano-2-fluorophenyl)-N-methyl-6,9-dioxo-5-(4-(trifluoromethyl)benzyl)-2,5,8-triazaspiro[3.5]nonane-2-carboxamide], the “CDMF75 IC15” value amounted to 200 nM.
The result for `CNC(=O)N1CC2(C1)C(=O)N(c1ccc(OC)c(F)c1)CC(=O)N2Cc1ccc(C(F)(F)F)cc1` [Compound 170, 8-(3-fluoro-4-methoxy-phenyl)-N-methyl-6,9-dioxo-5-(4-(trifluoromethyl)-benzyl)-2,5,8-triazaspiro-[3.5]nonane-2-carboxamide] reads 2900 nM; that for `CNC(=O)N1CC2(C1)C(=O)N(c1ccc(OC(F)F)c(F)c1)CC(=O)N2Cc1ccc(C(F)(F)F)cc1` [Compound 171, 8-(4-(difluoromethoxy)-3-fluorophenyl)-N-methyl-6,9-dioxo-5-(4-(trifluoromethyl)benzyl)-2,5/8-triazaspiro[3.5]-nonane-2-carboxamide], 2000 nM; that for `CNC(=O)N1CC2(C1)C(=O)N(c1ccc(C(=O)c3ccccc3)cc1)CC(=O)N2Cc1ccc(C(F)(F)F)cc1` [Compound 172, 8-(4-benzoylphenyl)-N-methyl-6,9-dioxo-5-(4-(trifluoromethyl)benzyl)-2,5,8-triazaspiro[3.5]-nonane-2-carboxamide], 18500 nM.
For the compound `CNC(=O)N1CC2(C1)C(=O)N(c1ccc(C#N)cc1F)CC(=O)N2Cc1ccc(C2(C(F)(F)F)N=N2)cc1` [Compound 173, 8-(4-cyano-2-fluorophenyl)-N-methyl-6,9-dioxo-5-(4-(3-(trifluoromethyl)-3H-diazirin-3-yl)benzyl)-2,5,8-triazaspiro[3.5]nonane-2-carboxamide], the “CDMF75 IC15” value came out at 600 nM.
Next, `CC(C)C(=O)N1CC2(C1)C(=O)N(c1ccc(C#N)cc1F)CC(=O)N2Cc1ccc(C(F)(F)F)cc1` [Compound 174, 3-fluoro-4-(2-isobutyryl-6,9-dioxo-5-(4-(trifluoromethyl)benzyl)-2,5,8-triazaspiro[3.5]nonan-8-yl)benzonitrile]: 8000 nM.
As for `CC(=O)N1CC2(C1)C(=O)N(c1ccc(C#N)cc1F)CC(=O)N2Cc1ccc(Cl)cc1` [Compound 175, 4-(2-acetyl-5-(4-chlorobenzyl)-6,9-dioxo-2,5,8-triazaspiro[3.5]nonan-8-yl)-3-fluorobenzonitrile], the “CDMF75 IC15” value worked out at 1200 nM.
The result for `CC(=O)N1CC2(C1)C(=O)N(c1ccc(C#N)cc1F)CC(=O)N2Cc1ccc(F)cc1` [Compound 176, 4-(2-acetyl-5-(4-fluoro-benzyl)-6,9-dioxo-2,5,8-triazaspiro[3.5]nonan-8-yl)-3-fluorobenzonitrile] reads 8500 nM; that for `CNC(=O)N1CC2(C1)C(=O)N(c1ccc3oc(=O)ccc3c1)CC(=O)N2Cc1ccc(C(F)(F)F)cc1` [Compound 177, N-methyl-6,9-dioxo-8-(2-oxo-2H-chromen-6-yl)-5-(4-(trifluoromethyl)benzyl)-2,5,8-triazaspiro[3.5]-nonane-2-carboxamide], 1800 nM.
The result for `C#Cc1ccc(N2CC(=O)N(Cc3ccc(C4(C(F)(F)F)N=N4)cc3)C3(CN(C(=O)NC)C3)C2=O)c(F)c1` [Compound 178, 8-(4-ethynyl-2-fluoro-phenyl)-N-methyl-6,9-dioxo-5-(4-(3-(trifluoromethyl)-3H-diazirin-3-yl)benzyl)-2,5,8-triazaspiro[3.5]nonane-2-carboxamide] reads 800 nM; that for `N#Cc1ccc(N2CC(=O)N(Cc3ccc(C(F)(F)F)cc3)C3(CN(C(=O)C4CCC4)C3)C2=O)c(F)c1` [Compound 180, 4-(2-(cyclobutanecarbonyl)-6,9-dioxo-5-(4-(trifluoromethyl)benzyl)-2,5,8-triazaspiro[3.5]nonan-8-yl)-3-fluorobenzonitrile], 1600 nM.
Turning to `CNC(=O)N1CC2(C1)C(=O)N(c1ccc3oc(=O)ccc3c1)CC(=O)N2Cc1ccc(C2(C(F)(F)F)N=N2)cc1` [Compound 181, N-methyl-6,9-dioxo-8-(2-oxo-2H-chromen-6-yl)-5-(4-(3-(trifluoromethyl)-3H-diazirin-3-yl)benzyl)-2,5,8-triazaspiro[3.5]-nonane-2-carboxamide], the “CDMF75 IC15” value stood at 6200 nM.
Regarding `CC(=O)N1CC2(C1)C(=O)N(c1ncc(Cl)cc1F)CC(=O)N2Cc1ccc(Cl)cc1` [Compound 182, 2-acetyl-8-(5-chloro-3-fluoropyridin-2-yl)-5-(4-chlorobenzyl)-2,5,8-triazaspiro[3.5]nonane-6,9-dione], the “CDMF75 IC15” value came to 2900 nM.
`CNC(=O)N1CCC2(C1)C(=O)N(c1ccc(C#N)cc1)CC(=O)N2Cc1ccc(C(F)(F)F)cc1` (stereo not drawn) [Compound 183, 9-(4-cyanophenyl)-N-methyl-7,10-dioxo-6-(4-(trifluoromethyl)benzyl)-2,6,9-triazaspiro[4.5]-decane-2-carboxamide]: the “CDMF75 IC15” value stood at 4600 nM.
